Experimental data published in US11524966B1 (Valo Early Discovery, Inc., priority 2017, dated 2022).

Molecular target: T1, USP28 (His-tagged USP28-FL-mammalian) (Homo sapiens, UniProt Q96RU2)
T1 construct: Expression of USP28 (1-1077)-TEV-6*His (pTT5 vector); made in house; host or cells: Expi293f cells (pTT5 vector)
T1 sequence (Q96RU2 1-1077): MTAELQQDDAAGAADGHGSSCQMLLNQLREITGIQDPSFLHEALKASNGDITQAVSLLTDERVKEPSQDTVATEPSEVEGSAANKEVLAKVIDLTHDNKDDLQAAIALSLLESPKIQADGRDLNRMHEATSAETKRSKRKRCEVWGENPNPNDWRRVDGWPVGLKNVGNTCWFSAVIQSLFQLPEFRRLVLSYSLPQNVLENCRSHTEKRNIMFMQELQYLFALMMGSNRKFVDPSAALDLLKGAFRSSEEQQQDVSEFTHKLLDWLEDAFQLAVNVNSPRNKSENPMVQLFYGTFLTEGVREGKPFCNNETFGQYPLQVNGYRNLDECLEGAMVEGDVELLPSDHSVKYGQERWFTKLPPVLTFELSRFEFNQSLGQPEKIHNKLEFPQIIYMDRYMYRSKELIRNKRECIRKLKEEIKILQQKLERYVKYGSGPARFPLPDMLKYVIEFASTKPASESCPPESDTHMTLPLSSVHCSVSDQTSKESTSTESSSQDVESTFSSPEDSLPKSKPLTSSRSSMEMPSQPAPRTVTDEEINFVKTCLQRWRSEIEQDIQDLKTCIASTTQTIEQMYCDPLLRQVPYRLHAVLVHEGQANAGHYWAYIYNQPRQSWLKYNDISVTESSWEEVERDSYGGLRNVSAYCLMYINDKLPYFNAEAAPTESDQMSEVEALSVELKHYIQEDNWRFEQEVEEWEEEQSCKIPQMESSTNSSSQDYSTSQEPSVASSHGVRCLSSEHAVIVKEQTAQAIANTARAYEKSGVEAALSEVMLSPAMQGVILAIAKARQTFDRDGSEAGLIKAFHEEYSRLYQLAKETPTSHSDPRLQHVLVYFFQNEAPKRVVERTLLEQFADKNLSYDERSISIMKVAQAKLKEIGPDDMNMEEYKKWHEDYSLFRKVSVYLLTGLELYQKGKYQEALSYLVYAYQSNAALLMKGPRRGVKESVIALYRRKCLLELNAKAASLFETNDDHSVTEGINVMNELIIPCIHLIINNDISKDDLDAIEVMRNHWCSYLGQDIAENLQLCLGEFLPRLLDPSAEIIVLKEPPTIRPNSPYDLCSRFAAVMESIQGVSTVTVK
Test: Ubiquitin-Rhodamine 110 Assay for USP28 Activity, Example A-1(a)
Assay type: biochemical
Conditions: Ubiquitin-Rhodamine 110 assay, Example A-1(a); read-out: USP28 A-1(a) IC50 range
In short: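 Full-length His-tagged human USP28 (1-1077, Expi293f-expressed), […], with 25 nM Ub-Rh110 (<<Km) in pH 8.0 Tris buffer with BME, BGG, Triton X-100. 10-point dilutions (25 μM-1.3 nM), 45 min at room temperature, citric acid stop, fluorescence 485/535 nm; IC50 by 4-parameter fit.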

Compound | IC50 [nM]
Cc1ccc2c(N)c(C(=O)N[C@@H]3Cc4ccc(N5CCNCC5)nc4[C@@H](C)C3)sc2n1 (single isomer, unassigned) [Example 205] | 200 to 2000
Cc1cc(C)c2c(N)c(C(=O)N[C@H]3COc4cc(N5CC[C@H]6CNC[C@H]65)cc(F)c4C3)sc2n1 (single isomer, unassigned) [Example 222] | 1 to 50
Cc1cc(C)c2c(N)c(C(=O)N[C@H]3COc4cc(N5CC[C@@H]6CNC[C@@H]65)cc(F)c4C3)sc2n1 (single isomer, unassigned) [Example 223] | 1 to 50
CO[C@H]1CN(c2cc3c(cc2C#N)C[C@@H](NC(=O)c2sc4nc(C)ccc4c2N)CO3)C[C@@H]1N [Example 177, 3-amino-N-[(3R)-7-[(3S,4S)-3-amino-4-methoxypyrrolidin-1-yl]-6-cyano-3-4-dihydro-2H-1-benzopyran-3-yl]-6-methylthieno[2,3-b]pyridine-2-carboxamide] | 1 to 50
CO[C@H]1CN(c2ccc3c(c2C#N)CC[C@H](NC(=O)c2sc4nc(C)ccc4c2N)C3)C[C@@H]1N [Example 178, 3-amino-N-[(2S)-6-[(3S,4S)-3-amino-4-methoxypyrrolidin-1-yl]-5-cyano-1,2,3,4-tetrahydronaphthalen-2-yl]-6-methylthieno[2,3-b]pyridine-2-carboxamide] | 1 to 50
CO[C@H]1CN(c2ccc3c(n2)OC[C@H](NC(=O)c2sc4nc(C)cnc4c2N)C3)C[C@@H]1N [Example 181, 7-amino-N-[(3R)-7-[(3S,4S)-3-amino-4-methoxypyrrolidin-1-yl]-2H,3H,4H-pyrano[2,3-b]pyridin-3-yl]-3-methylthieno[2,3-b]pyrazine-6-carboxamide] | 200 to 2000
CCO[C@H]1CN(c2ccc3c(n2)OC[C@H](NC(=O)c2sc4nc(C)cnc4c2N)C3)C[C@@H]1N [Example 182, 7-amino-N-[(3R)-7-[(3S,4S)-3-amino-4-ethoxypyrrolidin-1-yl]-2H,3H,4H-pyrano[2,3-b]pyridin-3-yl]-3-methylthieno[2,3-b]pyrazine-6-carboxamide] | 200 to 2000
CO[C@H]1CN(c2nc3c(cc2F)C[C@@H](NC(=O)c2sc4nc(C)ccc4c2N)CC3)C[C@@H]1N [Example 183, 3-amino-N-[(6S)-2-[(3S,4S)-3-amino-4-methoxypyrrolidin-1-yl]-3-fluoro-5,6,7,8-tetrahydroquinolin-6-yl]-6-methylthieno[2,3-b]pyridine-2-carboxamide] | 50 to 200
Cc1ccc2c(N)c(C(=O)N[C@H]3COc4cc(N5CCO[C@H]6CNC[C@H]65)ccc4C3)sc2n1 [Example 184, N-[(3R)-7-[(4aR, 7aS)-octahydropyrrolo[3,4-b]morpholin-4-yl]-3,4-dihydro-2H-1-benzopyran-3-yl]-3-amino-6-methylthieno[2,3-b]pyridine-2-carboxamide] | 1 to 50
Cc1ccc2c(N)c(C(=O)N[C@H]3COc4cc(N5CCO[C@@H]6CNC[C@@H]65)ccc4C3)sc2n1 [Example 185, N-[(3R)-7-[(4aS,7aR)-octahydropyrrolo[3,4-b]morpholin-4-yl]-3,4-dihydro-2H-1-benzopyran-3-yl]-3-amino-6-methylthieno[2,3-b]pyridine-2-carboxamide] | 1 to 50
CO[C@H]1CN(c2ccc3c(c2)CC[C@H](NC(=O)c2cnc4c(c2)C2CC2CN4)C3)C[C@@H]1N (stereo partly drawn) [Example 188, N-[(2S)-6-[(3S,4S)-3-amino-4-methoxypyrrolidin-1-yl]-1,2,3,4-tetrahydronaphthalen-2-yl]-5H,6H,6aH,7H,7aH-cyclopropa[c]1,8-naphthyridine-2-carboxamide] | 200 to 2000
CO[C@H]1CN(c2ccc3c(c2)CC[C@H](NC(=O)c2cnc4c(c2)[C@@H]2C[C@@H]2CN4)C3)C[C@@H]1N [Example 189, (6aS,7aR)-N-[(2S)-6-[(3S,4S)-3-amino-4-methoxypyrrolidin-1-yl]-1,2,3,4-tetrahydronaphthalen-2-yl]-5H,6H,6aH,7H,7aH-cyclopropa[c]1,8-naphthyridine-2-carboxamide] | 200 to 2000
CO[C@H]1CN(c2ccc3c(c2)CC[C@H](NC(=O)c2cnc4c(c2)[C@H]2C[C@H]2CN4)C3)C[C@@H]1N [Example 190, (6aR,7aS)-N-[(2S)-6-[(3S,4S)-3-amino-4-methoxypyrrolidin-1-yl]-1,2,3,4-tetrahydronaphthalen-2-yl]-5H,6H,6aH,7H,7aH-cyclopropa[c]1,8-naphthyridine-2-carboxamide] | > 2000
O=C(N[C@H]1CCc2cc(N3CC4CCC(C3)N4)cc(F)c2C1)c1cnc2c(c1)[C@@H]1C[C@@H]1CN2 [Example 191, (6aS,7aR)-N-[(2S)-6-{3,8-diazabicyclo[3.2.1]octan-3-yl}-8-fluoro-1,2,3,4-tetrahydronaphthalen-2-yl]-5H,6H,6aH,7H,7aH-cyclopropa[c]1,8-naphthyridine-2-carboxamide] | > 2000
O=C(N[C@H]1CCc2cc(N3CC4CCC(C3)N4)cc(F)c2C1)c1cnc2c(c1)[C@H]1C[C@H]1CN2 [Example 192, (6aR,7aS)-N-[(2S)-6-{3,8-diazabicyclo[3.2.1]octan-3-yl}-8-fluoro-1,2,3,4-tetrahydronaphthalen-2-yl]-5H,6H,6aH,7H,7aH-cyclopropa[c]1,8-naphthyridine-2-carboxamide] | 50 to 200
O=C(N[C@@H]1CCc2cc(N3CC4CCC(C3)N4)cc(F)c2C1)c1cnc2c(c1)[C@@H]1C[C@@H]1CN2 [Example 193, (6aS,7aR)-N-[(2R)-6-{3,8-diazabicyclo[3.2.1]octan-3-yl}-8-fluoro-1,2,3,4-tetrahydronaphthalen-2-yl]-5H,6H,6aH,7H,7aH-cyclopropa[c]1,8-naphthyridine-2-carboxamide] | 200 to 2000
O=C(N[C@@H]1CCc2cc(N3CC4CCC(C3)N4)cc(F)c2C1)c1cnc2c(c1)[C@H]1C[C@H]1CN2 [Example 194, (6aR,7aS)-N-[(2R)-6-{3,8-diazabicyclo[3.2.1]octan-3-yl}-8-fluoro-1,2,3,4-tetrahydronaphthalen-2-yl]-5H,6H,6aH,7H,7aH-cyclopropa[c]1,8-naphthyridine-2-carboxamide] | 200 to 2000
N#Cc1c(N2CC3CCC(C2)N3)cc(F)c2c1CC[C@H](NC(=O)c1cnc3c(c1)[C@@H]1C[C@@H]1CN3)C2 [Example 195, (6aS,7aR)-N-[(2S)-5-cyano-6-{3,8-diazabicyclo[3.2.1]octan-3-yl}-8-fluoro-1,2,3,4-tetrahydronaphthalen-2-yl]-5H,6H,6aH,7H,7aH-cyclopropa[c]1,8-naphthyridine-2-carboxamide] | 1 to 50
N#Cc1c(N2CC3CCC(C2)N3)cc(F)c2c1CC[C@H](NC(=O)c1cnc3c(c1)[C@H]1C[C@H]1CN3)C2 [Example 196, (6aR,7aS)-N-[(2S)-5-cyano-6-{3,8-diazabicyclo[3.2.1]octan-3-yl}-8-fluoro-1,2,3,4-tetrahydronaphthalen-2-yl]-5H,6H,6aH,7H,7aH-cyclopropa[c]1,8-naphthyridine-2-carboxamide] | > 2000
N#Cc1c(N2CC3CCC(C2)N3)cc(F)c2c1CC[C@@H](NC(=O)c1cnc3c(c1)[C@@H]1C[C@@H]1CN3)C2 [Example 197, (6aS,7aR)-N-[(2R)-5-cyano-6-{3,8-diazabicyclo[3.2.1]octan-3-yl}-8-fluoro-1,2,3,4-tetrahydronaphthalen-2-yl]-5H,6H,6aH,7H,7aH-cyclopropa[c]1,8-naphthyridine-2-carboxamide] | > 2000
N#Cc1c(N2CC3CCC(C2)N3)cc(F)c2c1CC[C@@H](NC(=O)c1cnc3c(c1)[C@H]1C[C@H]1CN3)C2 [Example 198, (6aR,7aS)-N-[(2R)-5-cyano-6-{3,8-diazabicyclo[3.2.1]octan-3-yl}-8-fluoro-1,2,3,4-tetrahydronaphthalen-2-yl]-5H,6H,6aH,7H,7aH-cyclopropa[c]1,8-naphthyridine-2-carboxamide] | 200 to 2000
CO[C@H]1CN(c2cc3c(c(F)c2C#N)C[C@@H](NC(=O)c2sc4nc(C)cnc4c2N)CO3)C[C@@H]1N [Example 199, 7-amino-N-[(3R)-7-[(3S,4S)-3-amino-4-methoxypyrrolidin-1-yl]-6-cyano-5-fluoro-3,4-dihydro-2H-1-benzopyran-3-yl]-3-methylthieno[2,3-b]pyrazine-6-carboxamide] | 1 to 50
CO[C@H]1CN(c2cc3c(c(F)c2C#N)C[C@@H](NC(=O)c2sc4nc(C)ccc4c2N)CO3)C[C@@H]1N [Example 200] | 1 to 50
